pIC50: −log10 of the molar value.
How the values were obtained:
[1] = test system: Capsaicin Induced Currents recorded from Nasally Innervated Guinea-Pig Trigeminal Ganglia Cell Bodies; assay: Whole cell patch clamp of capsaicin induced currents in nasally innervated trigeminal ganglia neurons; format: cell-based
Procedure: Nasal afferent neurons were retrogradely labelled by using DiIC13(3) solution (2% in DMSO, sonicated to ensure solubility) (Dil, Invitrogen), A guinea pig was dosed with atropine (1 mg/kg i.p.) 5 minutes prior to anaesthesia with isoflurane. Once unconscious 25 μl of the Dil solution was placed into the right nostril and the guinea pig allowed to recover. After 24 hours the procedure was repeated and the left nostril dosed. After a period of 2 weeks the guinea pig was killed via CO2 asphyxiation and the trigeminal ganglia rapidly dissected. An area of approximately 3 mm×2 mm which contained neurons that innervated the nose was isolated (J. Allergy Clin. Immunol. 2005, 116, 1282), cut into smaller pieces and incubated in enzyme buffer (8 mg papain in 4 ml L-15) at 37° C. for 40 min. The papain solution was removed and the tissue washed three times with 5-5 media (5-5 Media was prepared by the addition of 5 ml Fetal Bovine Serum, 5 ml Horse Serum, 1 ml 5000 Units Penicillin/5000 […] Streptomycin, 1 ml 30% Glucose and 0.33 ml of 1× stock Insulin Transferrin Sodium Selenite to 90 ml Minimum Essential Media with Earle's salts and Glutamax). The neurons were dissociated by trituration with 3 fire-polished glass Pastuer pipettes of decreasing tip size, then the resulting cell suspension filtered and centrifuged (1000 g for 4 min). The pellet was resuspended in 300 μl of 5-5 media. 25 μl of the cell suspension was plated onto poly-D-lysine and laminin coated 12 mm glass coverslips and placed in an incubator at 37° C. After 2 hours the coverslips were flooded with 5-5 media and used within 48 hours. Conventional whole cell patch clamp techniques were employed under voltage clamp (holding potential of −70 mV) at room temperature. Drug solutions were applied to the cell using a Rapid Solution Changer (Biologic). Cell bodies that had innervated the nose were identified using a fluorescence based microscope. All data was analysed using pClamp version 10.2.0.9 and 10.2.0.10 (Molecular Devices Inc).

[2] = test system: capsaicin provoked nasal tissue response; assay: Contralateral nasal tissue volume (MRI) after ipsilateral capsaicin challenge in guinea pig; format: in vivo; conditions: 1 hour pre-treatment, 0.3 mM capsaicin challenge
Procedure: (§1) Dunkin Hartley guinea pigs (ca. 180-200 g) were intranasally sensitised into both nostrils twice daily for 5 days with 25 μl of 10 μg ovalbimun plus 10 mg aluminium hydroxide in saline. This was followed up with one week of intranasal challenge in both nostrils with ovalbumin 25 μl of a 5 mg/ml saline solution per nostril (weekends eliminated).
(§2) Six animals per group were studied and a repeat of each study conducted to provide up to 12 animals per group in the final data set. Animals were pretreated with Compound 1 (intranasal administration 25 μl per nostril of a suspension or oral administration 1 ml of a solution in 50% deionised water 5% DMSO and 45% PEG 200). At a set time point the animals were anaethetised with urethane (1.5 g/kg) i.p. and scanned with magnetic resonance imaging (MRI) to obtain baseline nasal images. Each animal was then removed from the scanner and received an ipsilateral nasal challenge of capsaicin (50 μl of a solution 0.3 mM 5% DMSO, 5% Tween 80, 90% Phosphate buffered saline)) or 10% hypertonic saline solution (50 μl) (administered by pipette. The animal was rescanned at 10 minutes post-challenge to measure the contralateral fluid volumes.
(§3) The fluid measurement was made using standard T2 weighted spin echo MRI sequences on a 2 Tesla Bruker Medspec MRI scanner. The raw data was collected using Paravision 3.0.2 (Bruker) software. […]

[3] = test system: hypertonic saline provoked nasal secretion; assay: Contralateral nasal fluid secretion (MRI) after ipsilateral hypertonic saline challenge in sensitised guinea pig; format: in vivo; conditions: topical micronised 1 mg/ml, 1 hour pre-treatment, 10% hypertonic saline challenge; p<0.005
Procedure: as §1, §2, §3

[4] = test system: capsaicin provoked nasal secretion; assay: Contralateral nasal fluid secretion (MRI) after ipsilateral capsaicin challenge in sensitised guinea pig; format: in vivo; conditions: for reduction of contralateral fluid secretion: oral, non micronised, 1 hour prior to 0.3 mM capsaicin challenge; for inhibition of capsaicin provoked nasal secretion: topical (intranasal) non-micronised
Procedure: as §1, §2
The fluid measurement was made using standard T2 weighted spin echo MRI sequences on a 2 Tesla Bruker Medspec MRI scanner. The raw data was collected using Paravision 3.0.2 (Bruker) software. Fluid measurements were made using grey level thresholding technique using Mayo Clinic software Analyze 7.0. Statistical analysis was carried out using the Statistica 6.0 software by StatSoft

| pIC50 ([1]; Cavia porcellus, Neuron, 1 μM capsaicin, voltage clamp −70 mV, room temperature, Hill equation fit, n>4, read-out: IC50, inhibition of capsaicin response (inward current)) | Compound | cells tested producing an inward current ([1]; 1 μM capsaicin, small diameter (<30 μm) fluorescent neurons, voltage clamped at −70 mV) [%] | reduction of contralateral tissue swelling compared to vehicle control ([2]; topical micronised 3 mg/ml, p<0.05) [%] | reduction of contralateral tissue swelling compared to vehicle control ([2]; topical micronised 30 mg/ml, p<0.01) [%] | inhibition of the hypertonic saline response (nasal secretion) [3] [%] | inhibition of the capsaicin response (current), concentration dependence ([1]; voltage clamp −70 mV) | reversibility of inhibition on switching from capsaicin and Compound 1 to capsaicin only ([1]; voltage clamp −70 mV) | reduction of contralateral fluid secretion ([4]; 10 mg/kg, p<0.05) | reduction of contralateral fluid secretion ([4]; 30 mg/kg, p<0.001) | inhibition of capsaicin provoked nasal secretion ([4]; 10 mg/ml, 1 hour pre-treatment, p<0.005) [%] | inhibition of capsaicin provoked nasal secretion ([4]; 30 mg/ml, 1 hour pre-treatment) | inhibition of the capsaicin response (nasal secretion) ([4]; topical micronised, 1 hour pre-treatment, all the doses evaluated) | inhibition of contralateral response (nasal secretion) ([4]; topical micronised, capsaicin challenge 12 hours after pre-treatment) [%] | inhibition of contralateral response (nasal secretion) ([4]; topical micronised, capsaicin challenge 24 hours after pre-treatment) [%] |
| --- | --- | --- | --- | --- | --- | --- | --- | --- | --- | --- | --- | --- | --- | --- |
| – | COc1cc(CNC(=O)CCCC/C=C/C(C)C)ccc1O [capsaicin, reference compound] | 56 | – | – | – | – | – | – | – | – | – | – | – | – |
| 7.23 | O=C(Nc1ccccc1Br)N[C@@H]1CCN(c2ccc(C(F)(F)F)cn2)C1 [Compound 1, N-(2-bromophenyl)-N′-[((R)-1-(5-trifluoromethyl-2-pyridyl)pyrrolidin-3-yl)]urea] | – | 56 | 83 | 68 | concentration related inhibition | rapid reversal | ca. 50% | ca. 70% | > 50 | ca. 75% | significant inhibition | 62 | 52 |

Reference: US20110200646A1, “The TRPVL Antagonists SB-795498 For Treating Rhinitis” (priority 2008, published 2011)
